{"source": "patent US10716778B2", "about": "“Use of compounds that are able to increase the serum IGF-1 level for the preparation of a therapeutical composition for treatment of various disease states associated with a reduced IGF-1 serum level in humans and animals” (VEIJLEN N.V., priority 2003, dated 2020)", "type_in_all_cases": "in vivo, human", "key": {"[1]": {"tested_on": "IGF-1", "assay": "Plasma IGF-1 level in eight CFS patients treated with the composition (Example 1)", "experimental": "Eight patients suffering from severe chronic fatigue syndrome (CFS) were studied over a 5- to 7-month period. In this period, they were treated with a therapeutical composition of the disclosure in the form of a food supplement, which comprised IAA as the active ingredient. All subjects were unable to do their job or to perform very light physical exercise.\nBefore entering the study, the subjects underwent a careful medical examination to exclude any other disease. Blood was assayed for insulin-like growth factor 1 (IGF-1) and its major binding protein IGF-BP3 was sampled at 0, 1, 3 and 5 to 7 months of treatment because the total amount of IGF-1 in serum minus the amount of IGF-BP3 is the amount of free IGF-1. Free IGF-1 is the active serum fraction. Also at 0, 1, 3 and 5 to 7 months, job participation and physical activities were registered and calculated as percentage of normal, before disease pattern.\nEight women varying in age from 25 to 53 years having severe complaints of fatigue that made it impossible to function normally, both at work and in free time. All reported an excessive need for sleep, which was never refreshing even though it was prolonged (more than 12 hours). After excluding all other diseases and infections, they were all diagnosed for CFS.\nBlood samples of 20 ml were taken and liver and kidney functions, the red and white hemogram, IGF-1 and IGF-BP3 determined. The patients took 1000 mg/day (corresponding to 40 mg IAA and 960 mg salt and WPC 70) of the composition of the disclosure for 4 weeks. After this, the dosage was reduced by 250 mg (corresponding to 10 mg IAA) every 2 weeks to 750 mg/day, 500 mg/day 250 mg/day, respectively. […]\nAt the start of the study and at each check-up point, the work participation and physical activity pattern were scored on a scale from 1 to 10 and plotted as the percentage of the patient's normal activities. […] IGF-BP3 was determined by means of an immunoassay (DSL-5600 ACTIVE™, DSL Deutschland GmbH, Germany) having an intra-assay variance of 4.4% and an inter-assay variance of 6.6%. […]"}, "[2]": {"tested_on": "IGF-1", "assay": "IgF-1 level in type 2 diabetic patients during medication with IAA (Example 4)", "source_text": "(§1) Five male type 2 diabetic patients took part in the study. They were all very difficult to regulate. When the study started, the average HbA1c was to be approximately 9.0%. The patients had no other clinical problems. In addition, the IgF-BP3/IgF-1 ratio had to be over 10. The age of the subjects were between 45 years and 75 years with an average of 58. The period of the investigation was 6 months. […] The following parameters were checked: IGF-1 and IGF-PB-3. Also, at the start, safety parameters (liver tests, hematology) were determined. Every 8 weeks, HbA1c was determined.\n(§2) All samples from one subject were analyzed in the same run to avoid intra-assay variability. Quantification of IGF-1 was performed using an immunoradiometric assay (IRMA) (DSL-5600 ACTIVE™, DSL, Germany GmbH, Germany). Intra- and inter-assay variance was: 4.0% and 9.2% and 1.5% for IGF-1. The Hba1c was analyzed on HPLC Menarine HA 81-60.\n(§3) The total work output of every subject was calculated with a 2-way ANOVA for repeated measures and the hormone values were analyzed with the Wilcoxon test. In all cases, a p value of <0.05 was accepted as significant."}, "[3]": {"tested_on": "IgF-BP3/IgF-1", "assay": "Ratio IgF-BP3/IgF-1 in type 2 diabetic patients during medication with IAA (Example 4)", "conditions": "for Ratio IgF-BP3/IgF-1: acetic acid", "source_text": "as §1, §2, §3"}, "[4]": {"tested_on": "IGF-1", "assay": "IgF-1 level in athletes with intensive training taking IAA or placebo (Example 6)", "conditions": "group A", "experimental": "Twenty athletes entered the study. Other medication was excluded from the research. The period of the treatment was 12 weeks. They were not allowed to take any other medication or food supplements. They continued their level of training. After 2 weeks, the training was intensified by 25%. At baseline, at the start, after 2 weeks, 4 weeks, 6 weeks, 8 weeks, 10 weeks and 12 weeks, IGF-1 and safety parameters (liver tests, hematology) were determined. The group was divided into two groups of ten athletes. Group A received IAA; group B got a placebo.\nAll samples from one subject were analyzed in the same run to avoid intra-assay variability. GH was assayed with a chemiluminescence kit (Nichols Institute Diagnostics, San Juan Capistrano, Calif., USA). Quantification of IGF-1 was performed using an immunoradiometric assay (IRMA) (DSL-5600 ACTIVE, DSL, Germany GmbH, Germany). Intra- and inter-assay variance was: 4.0% and 9.2% for GH; 3.0% and 1.5% for IGF-1.\nThe total work output of every subject was calculated with a two-way ANOVA for repeated measures and the hormone values were analyzed with the Wilcoxon test. In all cases, 1 p value of <0.05 was accepted as significant.\nThe following schedule was used for the supplements. 1 IAA capsule contained 10 mg IAA, 100 mg NaCl, 140 mg WPC 70. One Glutamine capsule contained 500 mg glutamine. The amino acids that were taken are as described in Table 1."}}, "note": "“And” between values parts separate entries of the source, which are not always exact repeats. Equal entries are not always repeated.", "data": [{"substance": "indole acetic acid [IAA]", "values": [{"measurement": "plasma IGF-1 level (mean±SD)", "setting": "[1]; after 1 month", "result": "29.5 ± 8.2", "unit": "nmol/L"}, {"measurement": "plasma IGF-1 level (mean±SD)", "setting": "[1]; after 5 months of treatment", "result": "35 ± 10", "unit": "nmol/L"}, {"measurement": "plasma IGF-1 level (mean±SD)", "setting": "[1]; before treatment (baseline)", "result": "18 ± 5", "unit": "nmol/L"}, {"measurement": "IgF-1 level, average", "setting": "[2]; Month 0 (start), average of 5 subjects, acetic acid", "result": "10.8 nmol/L and 10.7 nmol/L"}, {"measurement": "IgF-1 level", "setting": "[2]; Month 0 (start), individual subjects, acetic acid", "result": "11.1 nmol/L and 9.6 nmol/L and 10.4 nmol/L and 11.2 nmol/L and 11.3 nmol/L"}, {"measurement": "IgF-1 level, average", "setting": "[2]; Month 1, average of 5 subjects", "result": 11.4, "unit": "nmol/L"}, {"measurement": "IgF-1 level", "setting": "[2]; Month 1, individual subjects, acetic acid", "result": "12.5 nmol/L and 10.1 nmol/L and 10.8 nmol/L and 11.6 nmol/L and 12.0 nmol/L"}, {"measurement": "IgF-1 level, average", "setting": "[2]; Month 2, average of 5 subjects", "result": 12.0, "unit": "nmol/L"}, {"measurement": "IgF-1 level", "setting": "[2]; Month 2, individual subjects, acetic acid", "result": "13.1 nmol/L and 10.6 nmol/L and 11.6 nmol/L and 11.9 nmol/L and 12.6 nmol/L"}, {"measurement": "IgF-1 level, average", "setting": "[2]; Month 3, average of 5 subjects", "result": 12.5, "unit": "nmol/L"}, {"measurement": "IgF-1 level", "setting": "[2]; Month 3, individual subjects, acetic acid", "result": "13.8 nmol/L and 11.1 nmol/L and 12.1 nmol/L and 12.3 nmol/L and 13.0 nmol/L"}, {"measurement": "IgF-1 level, average", "setting": "[2]; Month 4, average of 5 subjects", "result": 13.0, "unit": "nmol/L"}, {"measurement": "IgF-1 level", "setting": "[2]; Month 4, individual subjects, acetic acid", "result": "14.3 nmol/L and 11.8 nmol/L and 12.6 nmol/L and 12.8 nmol/L and 13.5 nmol/L"}, {"measurement": "IgF-1 level, average", "setting": "[2]; Month 5, average of 5 subjects", "result": 13.5, "unit": "nmol/L"}, {"measurement": "IgF-1 level", "setting": "[2]; Month 5, individual subjects, acetic acid", "result": "14.9 nmol/l and 12.1 nmol/l and 13.3 nmol/l (2×) and 13.9 nmol/l"}, {"measurement": "IgF-1 level, average", "setting": "[2]; Month 6, average of 5 subjects", "result": 14.1, "unit": "nmol/L"}, {"measurement": "IgF-1 level", "setting": "[2]; Month 6, individual subjects, acetic acid", "result": "15.2 nmol/L and 12.9 nmol/L and 13.9 nmol/L and 14.4 nmol/L and 14.3 nmol/L"}, {"measurement": "Ratio IgF-BP3/IgF-1, average", "setting": "[3]; Month 0 (start), average of 5 subjects", "result": 10.6}, {"measurement": "Ratio IgF-BP3/IgF-1", "setting": "[3]; Month 0 (start), individual subjects", "result": "10.2 and 10.6 and 10.8 and 11.3 and 10.0"}, {"measurement": "Ratio IgF-BP3/IgF-1, average", "setting": "[3]; Month 1, average of 5 subjects", "result": 9.9}, {"measurement": "Ratio IgF-BP3/IgF-1", "setting": "[3]; Month 1, individual subjects", "result": "9.7 and 10.1 and 9.9 and 10.8 and 8.9"}, {"measurement": "Ratio IgF-BP3/IgF-1, average", "setting": "[3]; Month 2, average of 5 subjects", "result": 8.9}, {"measurement": "Ratio IgF-BP3/IgF-1", "setting": "[3]; Month 2, individual subjects", "result": "9.0 and 8.6 and 9.4 and 9.2 and 8.5"}, {"measurement": "Ratio IgF-BP3/IgF-1, average", "setting": "[3]; Month 3, average of 5 subjects", "result": 8.5}, {"measurement": "Ratio IgF-BP3/IgF-1", "setting": "[3]; Month 3, individual subjects", "result": "8.6 and 8.3 and 8.9 and 8.8 and 8.1"}, {"measurement": "Ratio IgF-BP3/IgF-1, average", "setting": "[3]; Month 4, average of 5 subjects", "result": 7.9}, {"measurement": "Ratio IgF-BP3/IgF-1", "setting": "[3]; Month 4, individual subjects", "result": "8.0 and 7.6 (2×) and 8.3 and 7.8"}, {"measurement": "Ratio IgF-BP3/IgF-1, average", "setting": "[3]; Month 5, average of 5 subjects", "result": 7.2}, {"measurement": "Ratio IgF-BP3/IgF-1", "setting": "[3]; Month 5, individual subjects", "result": "7.2 (2×) and 6.8 and 7.6 and 7.3"}, {"measurement": "Ratio IgF-BP3/IgF-1, average", "setting": "[3]; Month 6, average of 5 subjects", "result": 6.8}, {"measurement": "Ratio IgF-BP3/IgF-1", "setting": "[3]; Month 6, individual subjects", "result": "6.6 and 6.3 and 7.2 and 6.9 (2×)"}, {"measurement": "increase of IgF-1 level", "setting": "[4]; over a period of 8 weeks (so in the source), statistically significant", "result": "ca. 47.7%"}, {"measurement": "IgF-1 level, average test group", "setting": "[4]; time point 0 (start), blood taken every 2 weeks over 12 weeks", "result": 27.9, "unit": "nmol/L"}, {"measurement": "IgF-1 level, average test group", "setting": "[4]; time point 1", "result": 35.8, "unit": "nmol/L"}, {"measurement": "IgF-1 level, average test group", "setting": "[4]; time point 2", "result": 38.9, "unit": "nmol/L"}, {"measurement": "IgF-1 level, average test group", "setting": "[4]; time point 3", "result": 42.5, "unit": "nmol/L"}, {"measurement": "IgF-1 level, average test group", "setting": "[4]; time point 4", "result": 41.7, "unit": "nmol/L"}, {"measurement": "IgF-1 level, average test group", "setting": "[4]; time point 5", "result": 41.4, "unit": "nmol/L"}, {"measurement": "IgF-1 level, average test group", "setting": "[4]; time point 6 (end of the study)", "result": 41.2, "unit": "nmol/L"}]}]}
